In PubChem BioAssay (NCI):
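Cells were grown in 96-well plates and exposed to each compound for 48 hours at five concentrations; endpoints were interpolated linearly between bracketing concentrations, or set to the highest concentration if not reached. The concentration for full growth arrest is given as TGI.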

Key:
Assay in all cases: NCI tumour cell line growth inhibition, 48 h
NCI-H226 lung = test system: NCI-H226 lung
MDA-N = test system: MDA-N
U251 CNS = test system: U251 CNS
HCT-15 colon = test system: HCT-15 colon
RPMI-8226 leukemia = test system: RPMI-8226 leukemia
SK-MEL-28 melanoma = test system: SK-MEL-28 melanoma
SF-539 CNS = test system: SF-539 CNS
SNB-75 CNS = test system: SNB-75 CNS
CCRF-CEM leukemia = test system: CCRF-CEM leukemia
UO-31 renal = test system: UO-31 renal
SF-295 CNS = test system: SF-295 CNS
BT-549 breast = test system: BT-549 breast
SNB-19 CNS = test system: SNB-19 CNS
SN12C renal = test system: SN12C renal
NCI-H23 lung = test system: NCI-H23 lung
IGROV1 ovarian = test system: IGROV1 ovarian
SK-MEL-2 melanoma = test system: SK-MEL-2 melanoma
ACHN renal = test system: ACHN renal
COLO 205 colon = test system: COLO 205 colon
SR leukemia = test system: SR leukemia

| SMILES | TGI (NCI-H226 lung) | TGI (MDA-N) | TGI (U251 CNS) | TGI (HCT-15 colon) | TGI (RPMI-8226 leukemia) | TGI (SK-MEL-28 melanoma) | TGI (SF-539 CNS) | TGI (SNB-75 CNS) | TGI (CCRF-CEM leukemia) | TGI (UO-31 renal) | TGI (SF-295 CNS) | TGI (BT-549 breast) | TGI (SNB-19 CNS) | TGI (SN12C renal) | TGI (NCI-H23 lung) | TGI (IGROV1 ovarian) | TGI (SK-MEL-2 melanoma) | TGI (ACHN renal) | TGI (COLO 205 colon) | TGI (SR leukemia) |
| --- | --- | --- | --- | --- | --- | --- | --- | --- | --- | --- | --- | --- | --- | --- | --- | --- | --- | --- | --- | --- |
| CC(C)OP(=O)(OC(C)C)C(C)(C)O | > 100 µM | > 100 µM | > 100 µM | > 100 µM | > 100 µM | > 100 µM | > 100 µM | > 100 µM | > 100 µM | > 100 µM | > 100 µM | > 100 µM | > 100 µM | > 100 µM | > 100 µM | > 100 µM | > 100 µM | > 100 µM | > 100 µM | > 100 µM |
| CN=c1sc2nc(C#N)c(C#N)nc2n1C | 38.8 µM | > 58.3 µM | 44.9 µM | 41.2 µM | > 84.9 µM | > 85 µM | > 70.9 µM | 51.4 µM | > 100 µM | 51.3 µM | 45.5 µM | 62.8 µM | > 62.6 µM | > 100 µM | 37.9 µM | 53.4 µM | 40.7 µM | 60.2 µM | 32.1 µM | > 79.6 µM |
| O=C(Nc1ccccc1)OCCN=C1c2ccccc2CCc2ccccc21 | 55 µM | 37.2 µM | 32.1 µM | 48.2 µM | 36.1 µM | 28.7 µM | 34.8 µM | > 100 µM | 55.7 µM | 43.7 µM | 34.1 µM | 42.1 µM | 43.7 µM | 40.2 µM | > 100 µM | 58.2 µM | 30.3 µM | 70.1 µM | 33.1 µM | 38.9 µM |
| C[C@@H]1CC[C@@H]2[C@@H](C1)O[C@@H]([C@@H](C)OCc1ccccc1)SC2(C)C | 34.5 µM | 36.3 µM | 32.6 µM | 36.8 µM | 35.4 µM | 60.4 µM | 33.6 µM | 34 µM | 34.5 µM | 30.6 µM | 31.2 µM | 42.6 µM | 33.6 µM | 32.3 µM | 51.5 µM | 63.3 µM | 31 µM | 31.6 µM | 32.7 µM | 34.9 µM |
| CC(C)[Si]1(C(C)C)OCC2OC(n3ccc(=O)[nH]c3=O)C([Se]c3ccccc3)C2O[Si](C(C)C)(C(C)C)O1 (stereo not given) | 3.88 µM | 12.7 µM | 4.87 µM | 16.3 µM | 10.9 µM | 12.5 µM | 20.7 µM | 2.42 µM | > 24.4 µM | 21.5 µM | 18 µM | 23.7 µM | 0.677 µM | 5.57 µM | 13 µM | 9.49 µM | 20.1 µM | 6.59 µM | 16.6 µM | 27.1 µM |
| CC(C)(C)OC(=O)N1CCCC1C(=O)NC(c1ccccc1)c1ccccc1 (stereo not given) | > 100 µM | > 100 µM | > 100 µM | > 100 µM | > 100 µM | > 100 µM | > 100 µM | > 100 µM | > 100 µM | > 100 µM | > 100 µM | > 100 µM | > 100 µM | > 100 µM | > 100 µM | > 100 µM | > 100 µM | > 100 µM | > 100 µM | > 100 µM |
| Cc1[nH]c(-c2ccccc2)c2nc(N(C)C)oc(=O)c12 | > 100 µM | > 100 µM | > 100 µM | > 100 µM | > 100 µM | > 100 µM | > 100 µM | > 100 µM | > 100 µM | > 100 µM | > 100 µM | > 100 µM | > 100 µM | > 100 µM | > 100 µM | > 100 µM | > 100 µM | > 100 µM | > 100 µM | > 100 µM |
| COC(=O)C(=O)Nc1cc2c3c(c1)Oc1cccc4c1C3(C)c1c(cccc1O2)O4 | 44.8 µM | > 100 µM | > 100 µM | > 100 µM | > 100 µM | > 100 µM | > 76.6 µM | > 100 µM | 8.7 µM | > 100 µM | > 100 µM | > 100 µM | > 100 µM | > 100 µM | > 100 µM | > 100 µM | > 100 µM | > 100 µM | > 31.6 µM | > 100 µM |
| CC(C)(C)OC(=O)CCCCCNC(=O)CCCCCNC(=O)CCC(CN(CC(=O)OCc1ccccc1)CC(=O)OCc1ccccc1)N(CC(=O)OCc1ccccc1)CC(=O)OCc1ccccc1 (stereo not given) | > 100 µM | > 100 µM | > 100 µM | > 100 µM | > 100 µM | > 100 µM | > 100 µM | 81.9 µM | > 100 µM | > 100 µM | > 100 µM | > 100 µM | > 100 µM | > 100 µM | > 100 µM | > 100 µM | > 100 µM | > 100 µM | > 100 µM | > 100 µM |
